Test results: patent US7282507B2, “Indole derivatives as selective androgen receptor modulators (SARMS)” (Janssen Pharmaceutica N.V., priority 2004, dated 2007)
“And” between values parts separate entries of the source, which are not always exact repeats. Equal values may be shown once. Read-outs that look alike come from different tables or passages of the source.

How the values were obtained:
[1] = molecular target: T1, androgen receptor (rat ventral prostate cytosol) (Rattus norvegicus, UniProt P15207); experiment: Androgen Receptor Binding Using Rat Ventral Prostate Cytosol; conditions: for IC50: read-out: IC50 (nM), Androgen Receptor Binding (Rat Cytosol); for inhibition at 1 µM: read-out: % Inhibition, Androgen Receptor Binding (Rat Cytosol)
T1 construct: from tissue; host or cells: ventral prostate cytosol of castrated male Sprague Dawley or Wistar rats
T1 sequence (P15207 1-902): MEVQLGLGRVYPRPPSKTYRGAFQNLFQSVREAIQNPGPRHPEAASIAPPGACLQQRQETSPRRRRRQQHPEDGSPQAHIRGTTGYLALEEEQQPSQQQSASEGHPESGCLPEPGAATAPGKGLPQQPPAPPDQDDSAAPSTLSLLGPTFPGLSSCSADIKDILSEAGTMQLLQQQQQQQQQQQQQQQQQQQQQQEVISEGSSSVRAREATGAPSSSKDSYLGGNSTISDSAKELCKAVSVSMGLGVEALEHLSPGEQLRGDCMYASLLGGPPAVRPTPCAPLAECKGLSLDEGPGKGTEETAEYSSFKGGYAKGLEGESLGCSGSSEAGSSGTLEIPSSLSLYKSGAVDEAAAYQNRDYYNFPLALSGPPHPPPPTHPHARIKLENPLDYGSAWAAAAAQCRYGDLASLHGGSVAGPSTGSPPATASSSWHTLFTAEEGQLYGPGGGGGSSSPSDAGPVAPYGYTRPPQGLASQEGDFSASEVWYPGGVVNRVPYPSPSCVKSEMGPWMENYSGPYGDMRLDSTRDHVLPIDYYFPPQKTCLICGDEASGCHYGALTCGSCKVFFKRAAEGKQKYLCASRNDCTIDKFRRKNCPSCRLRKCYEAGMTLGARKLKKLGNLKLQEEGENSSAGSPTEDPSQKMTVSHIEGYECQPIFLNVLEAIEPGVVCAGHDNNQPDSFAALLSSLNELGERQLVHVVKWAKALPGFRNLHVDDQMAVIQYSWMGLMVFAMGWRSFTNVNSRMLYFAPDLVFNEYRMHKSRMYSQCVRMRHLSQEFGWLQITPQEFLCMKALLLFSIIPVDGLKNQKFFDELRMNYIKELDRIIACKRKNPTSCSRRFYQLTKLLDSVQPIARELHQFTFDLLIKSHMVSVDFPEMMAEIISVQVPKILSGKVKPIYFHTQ
In short: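 Cytosol from castrated rat ventral prostate was incubated overnight at 4°C with 0.5 nM [3H] tracer and compound in TED buffer (10 mM Tris-HCl pH 7.4, molybdate, EDTA, DTT, glycerol).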

[2] = molecular target: T2, androgen receptor LBD (Panvera) (Rattus norvegicus, UniProt P15207); experiment: Androgen Receptor Filtration Binding Assay (PANVERA)
T2 construct: 5 pmol androgen receptor LBD (Panvera); purchased Panvera
T2 sequence (P15207 651-882 limits assumed): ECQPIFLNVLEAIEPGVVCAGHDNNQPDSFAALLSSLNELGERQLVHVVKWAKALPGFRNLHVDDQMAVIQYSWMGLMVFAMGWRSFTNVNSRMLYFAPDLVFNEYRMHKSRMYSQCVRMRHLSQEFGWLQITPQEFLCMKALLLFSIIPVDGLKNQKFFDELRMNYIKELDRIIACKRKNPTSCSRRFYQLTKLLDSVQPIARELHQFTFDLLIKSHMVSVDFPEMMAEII
Method: The assay was run on a 96 well plate with each well filled with a total reaction volume 150 μL, of a solution containing 5 pmol androgen receptor LBD (Panvera) or 30 μL of freshly prepared rat cytosol, 0.5 nM [^3H] […] (TED buffer contains 10 mM Tris.HCl pH 7.4, 1 mM sodium molybdate, 1.5 mM EDTA, 1 mM DTT and 10% (v/v) glycerol.)
On day one, the solution containing receptor, tracer and TED buffer was distributed into a 96 well plate. Diluted test compound or control vehicle was then added to individual wells and the plate incubated at 4° C. overnight.
On day two, to each well was then added 20 μL human γ-globulin (ICN 823102), prepared at 25 mg/ml in TE pH 8.0, and 55 μL 40% polyethylene glycol 8000 (J T Baker U222-08), prepared in TE pH 8.0. The plate was incubated at 4° C. for 60 minutes. During incubation, the harvester was rinsed with 10% PEG 8000, prepared in TE pH 8.0, and a GF/C Unifilter-96 was pre-wet with 10% PEG. The binding reaction was filtered, the retentate was washed three times with 10% PEG and dried under vacuum for a couple of minutes, then dried at 50° C. for 5 min and the plate was bottom sealed. Next, 25 μL of Microscint-20 (Packard) was added to the filter wells and the plate was top sealed. The plate wells were then counted on a TopCount (Packard).
Counts per well were measured and IC50s determined by linear regression.

[3] = [3H] R1881 tracer 0.5 nM, read-out: IC50 (nM), Androgen Receptor Binding (Panvera)
[4] = read-out: IC50 (nM), Androgen Receptor Binding (Panvera)

SMILES | IC50 [2, 3] | inhibition at 1 µM ([1]; Concentration 1000 nM) | also measured
OC1(c2cc3cc(Cl)c(C(F)(F)F)cc3[nH]2)CCN(Cc2ccccc2)CC1 [Compound 22] | > 9600 nM | – | IC50 [1]: > 7700 nM
CC(O)(COC(=O)c1ccccc1)c1cc2cc([N+](=O)[O-])c(C(F)(F)F)cc2[nH]1 (stereo not drawn) [Compound 64] | 815 nM | 61.5% | –
Cc1ccc(C(=O)OCC(C)(O)c2cc3cc([N+](=O)[O-])c(C(F)(F)F)cc3[nH]2)cc1 (stereo not drawn) [Compound 69] | 1200 nM | 31% | –
COC(=O)c1ccc2[nH]c(C(C)(O)CSc3ccc(Cl)cc3)cc2c1 (stereo not drawn) [Compound 97] | 7400 nM | 25% | –
CC(C)(C)c1ccc(C(=O)OCC(C)(O)c2cc3cc([N+](=O)[O-])c(C(F)(F)F)cc3[nH]2)cc1 (stereo not drawn) [Compound 80] | 6400 nM | -24.9% | –
CC(O)(COC(=O)c1ccccc1Cl)c1cc2cc([N+](=O)[O-])c(C(F)(F)F)cc2[nH]1 (stereo not drawn) [Compound 54] | – | – | inhibition at 1 µM [1]: 5.5%; IC50 ([2]; IC50 (nM), Androgen Receptor Binding (Panvera)): 220 nM; IC50 [2, 4]: 465 nM
CC(O)(COC(=O)c1ccc(Cl)c(Cl)c1)c1cc2cc(C#N)c(C(F)(F)F)cc2[nH]1 (stereo not drawn) [Compound 78] | 3560 nM | 16.6% | –
CC(O)(CSc1ccc(F)cc1)c1cc2cc(Cl)ccc2[nH]1 (stereo not drawn) [Compound 100] | 1160 nM | 80% | –
CC(O)(CSc1ccc(Cl)cc1)c1cc2cc(Cl)ccc2n1S(C)(=O)=O (stereo not drawn) [Compound 101] | 3850 nM | -24.9% | –
CC(O)(CSc1ccc(Cl)cc1)c1cc2ccccc2n1S(C)(=O)=O (stereo not drawn) [Compound 88] | 5150 nM | -17.4% | –
CS(=O)(=O)n1c(C2(O)CCN(Cc3ccccc3)CC2)cc2cc(Cl)c(C(F)(F)F)cc21 [Compound 21] | > 10200 nM | – | % Inhibition, Androgen Receptor Binding (Rat Cytosol) ([1]; Concentration 1000 nM): −41.5%
CC(O)(COC(=O)c1ccc(Cl)cc1)c1cc2cc([N+](=O)[O-])c(C(F)(F)F)cc2[nH]1 (stereo not drawn) [Compound 55] | 715 nM and 635 nM | 5.5% | IC50 [1]: 180 nM
CC(O)(CSc1ccc(F)cc1)c1cc2cc(Cl)ccc2n1S(C)(=O)=O (stereo not drawn) [Compound 99] | 5750 nM | 8.5% | –
CC(O)(Sc1ccccc1)c1cc2cc([N+](=O)[O-])c(C(F)(F)F)cc2[nH]1 (racemic) [Compound 258] | 2450 nM | – | % Inhibition, Androgen Receptor Binding (Rat Cytosol) ([1]; Concentration 1000 nM): 35.4%
CC(O)(COC(=O)c1cccc(Cl)c1)c1cc2cc([N+](=O)[O-])c(C(F)(F)F)cc2[nH]1 (stereo not drawn) [Compound 58] | – | 79.5% | IC50 [2, 4]: 455 nM
CC(O)(CSc1ccccc1)c1cc2nc(C(F)(F)F)ccc2[nH]1 (racemic) [Compound 2] | 53000 nM | 2.5% | –
O=C(OCc1ccccc1)N1CCC(O)(c2cc3cc(Cl)c(C(F)(F)F)cc3[nH]2)CC1 [Compound 20] | 23500 nM | -28.5% | –

SMILES | IC50 [2, 3] | inhibition at 1 µM ([1]; Concentration 1000 nM) | also measured
CC(CO)(Sc1ccc(Cl)cc1)c1cc2cc(Cl)c(C(F)(F)F)cc2[nH]1 (racemic) [Compound 253] | 335 nM | 33.5% | –
COC(=O)c1ccc2c(c1)cc(C(C)(O)CSC1CCCCC1)n2S(C)(=O)=O (stereo not drawn) [Compound 93] | 23000 nM | 35% | –
CC(O)(COC(=O)c1ccccc1C(F)(F)F)c1cc2cc(NC(=O)C(F)(F)F)c(C(F)(F)F)cc2[nH]1 (stereo not drawn) [Compound 60] | 6750 nM | 44.5% | IC50 [1]: > 10000 nM
CC(O)(CSc1ccc(Cl)cc1)c1cc2cc(Cl)ccc2[nH]1 (stereo not drawn) [Compound 102] | 665 nM | 73.5% | IC50 [1]: 140 nM
CC(O)(COC(=O)c1cccnc1)c1cc2cc(C#N)c(C(F)(F)F)cc2[nH]1 (stereo not drawn) [Compound 79] | > 9500 nM | 48.5% | –
CC(O)(CSc1ccc(Cl)c(Cl)c1)c1cc2cc([N+](=O)[O-])c(C(F)(F)F)cc2[nH]1 (stereo not drawn) [Compound 87] | 350 nM and 1650 nM | – | % Inhibition, Androgen Receptor Binding (Rat Cytosol) ([1]; Concentration 1000 nM, 1 µM): 85% and 61.5%; IC50 [1]: 120 nM
CC(O)(c1cc2cc(C#N)c(C(F)(F)F)cc2[nH]1)S(=O)(=O)c1ccc(Cl)cc1 (racemic) [Compound 262] | > 10000 nM | – | % Inhibition, Androgen Receptor Binding (Rat Cytosol) ([1]; Concentration 1000 nM): −8.4%
CN(C)c1ccc(C(=O)OCC(C)(O)c2cc3cc([N+](=O)[O-])c(C(F)(F)F)cc3[nH]2)cc1 (stereo not drawn) [Compound 67] | 3000 nM | 25.5% | –
CC(O)(COC(=O)c1ccccc1)c1cc2cc(Cl)c(C(F)(F)F)cc2[nH]1 (stereo not drawn) [Compound 61] | 440 nM | 73% | –
COc1ccc(C(=O)OCC(C)(O)c2cc3cc([N+](=O)[O-])c(C(F)(F)F)cc3[nH]2)cc1 (stereo not drawn) [Compound 65] | 945 nM | 47.5% | –
CC(O)(COC(=O)c1ccc(Cl)c(Cl)c1)c1cc2cc([N+](=O)[O-])c(C(F)(F)F)cc2[nH]1 (stereo not drawn) [Compound 56] | 485 nM and 610 nM | 38.5% | –
CS(=O)(=O)n1c(C2(O)CCN(C(=O)OCc3ccccc3)CC2)cc2cc(Cl)c(C(F)(F)F)cc21 [Compound 19] | > 100000 nM | – | % Inhibition, Androgen Receptor Binding (Rat Cytosol) ([1]; Concentration 1000 nM): −55%
CC(O)(COC(=O)c1ccc(Cl)cc1)c1cc2cc(Cl)c(C(F)(F)F)cc2[nH]1 (racemic) [Compound 62] | 325 nM | – | % Inhibition, Androgen Receptor Binding (Rat Cytosol) ([1]; Concentration 1000 nM): 69%
CC(O)(CSc1ccc(Cl)cc1)c1cc2cc(Cl)c(C(F)(F)F)cc2[nH]1 (stereo not drawn) [Compound 82] | 185 nM and 200 nM | 69.8% | % Inhibition, Androgen Receptor Binding (Rat Cytosol) ([1]; Concentration 1000 nM, 1 µM): 83%; IC50 [1]: 640 nM
CC(O)(CSC1CCCCC1)c1cc2nc(C(F)(F)F)ccc2[nH]1 (racemic) [Compound 1] | 14000 nM | 22% | –
CC(O)(C[S+]([O-])c1ccc(Cl)c(Cl)c1)c1cc2cc(Cl)c(C(F)(F)F)cc2[nH]1 (stereo not drawn) [Compound 117] | 2000 nM | – | % Inhibition, Androgen Receptor Binding (Rat Cytosol) ([1]; Concentration 1000 nM, 1 µM): 32.5%
CC(O)(CSc1ccc(Cl)cc1)c1cc2nc(C(F)(F)F)ccc2[nH]1 (racemic) [Compound 3] | 26000 nM | 6.6% | –
